Test results reported in BindingDB's records for patent US10052306 (CADENT THERAPEUTICS, INC., 2018).

Molecular target: Glutamate receptor ionotropic, NMDA 2B (Homo sapiens, UniProt Q13224)
Experiment: FDSS Assay
Protocol: To each well of the plate, 10 μL test compound, control (MK801) or HHnoCa buffer was added to a final concentration of 10 μM with a final concentration of DMSO of 0.1%. Following 10 minutes pre-incubation in the dark, plates are loaded onto the Hamamatsu FDSS 6000. After collecting baseline fluorescence images, 3 μM glutamate, 3 glycine, and 1 mM Ca2+ in HHnoCa buffer is added to each well, and Ca2+ is recorded for 3 minutes. Data were processed by computing ratio of fluorescence at the end of data collection to baseline fluorescence to assess degree of Ca′ influx inhibition relative to that observed in MK801.

Chain of Glutamate receptor ionotropic, NMDA 2B (Q13224 whole entry): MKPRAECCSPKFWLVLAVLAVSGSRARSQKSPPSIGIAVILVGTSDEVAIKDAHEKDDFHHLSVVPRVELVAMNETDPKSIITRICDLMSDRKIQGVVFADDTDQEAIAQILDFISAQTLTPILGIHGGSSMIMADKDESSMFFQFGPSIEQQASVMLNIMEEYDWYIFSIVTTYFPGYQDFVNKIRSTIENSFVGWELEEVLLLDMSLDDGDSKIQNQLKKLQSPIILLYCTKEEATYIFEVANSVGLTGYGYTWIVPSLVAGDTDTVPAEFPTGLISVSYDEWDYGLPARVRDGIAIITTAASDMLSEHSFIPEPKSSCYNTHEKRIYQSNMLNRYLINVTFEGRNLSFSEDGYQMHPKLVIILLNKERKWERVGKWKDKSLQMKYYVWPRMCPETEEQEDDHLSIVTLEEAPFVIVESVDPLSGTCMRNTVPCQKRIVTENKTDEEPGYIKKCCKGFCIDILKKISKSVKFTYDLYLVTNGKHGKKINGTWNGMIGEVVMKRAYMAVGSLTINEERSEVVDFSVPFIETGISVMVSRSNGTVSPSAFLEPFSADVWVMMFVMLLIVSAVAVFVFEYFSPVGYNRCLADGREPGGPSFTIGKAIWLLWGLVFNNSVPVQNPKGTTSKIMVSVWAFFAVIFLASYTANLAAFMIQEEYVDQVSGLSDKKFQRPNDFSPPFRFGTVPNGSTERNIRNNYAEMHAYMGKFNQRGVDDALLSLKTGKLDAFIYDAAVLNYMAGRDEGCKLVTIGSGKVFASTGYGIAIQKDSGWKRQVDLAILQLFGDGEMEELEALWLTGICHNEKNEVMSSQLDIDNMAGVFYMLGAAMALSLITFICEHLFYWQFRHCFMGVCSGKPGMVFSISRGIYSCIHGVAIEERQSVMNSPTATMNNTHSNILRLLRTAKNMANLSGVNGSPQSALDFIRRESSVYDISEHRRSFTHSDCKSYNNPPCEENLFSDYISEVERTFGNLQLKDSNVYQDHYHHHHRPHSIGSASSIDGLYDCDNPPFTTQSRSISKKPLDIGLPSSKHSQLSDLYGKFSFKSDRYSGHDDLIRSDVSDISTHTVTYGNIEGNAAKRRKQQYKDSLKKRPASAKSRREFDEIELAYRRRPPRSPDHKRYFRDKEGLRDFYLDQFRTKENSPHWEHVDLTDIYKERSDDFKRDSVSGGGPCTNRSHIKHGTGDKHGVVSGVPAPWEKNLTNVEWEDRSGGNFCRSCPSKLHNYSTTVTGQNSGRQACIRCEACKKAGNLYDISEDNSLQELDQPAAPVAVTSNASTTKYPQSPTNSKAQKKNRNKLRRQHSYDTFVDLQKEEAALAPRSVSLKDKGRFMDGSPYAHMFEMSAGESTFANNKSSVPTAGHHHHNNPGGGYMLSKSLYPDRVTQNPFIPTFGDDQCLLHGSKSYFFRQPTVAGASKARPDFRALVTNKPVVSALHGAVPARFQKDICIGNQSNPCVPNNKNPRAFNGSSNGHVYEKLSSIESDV

IC50: 10 µM
SMILES: O=C(CN1C[C@@H]2C[C@@](O)(c3ccccc3)C[C@@H]2C1)c1ccc(O)cc1 [US10052306, 65]
